The molecules below were run on HL-60 leukemic cells (assay: Nitroblue Tetrazolium (NBT) reduction assay, differentiation of HL-60 leukemic cells). Details: Homo sapiens, HL-60, read-out: HL-60, Dif50.
Type: cell-based, human
Excerpt: In an aspect of the present disclosure, the compounds of the disclosure can be identified using a novel high-throughput screen that is biased to identify agents that have both a high potency and low toxicity in a myeloid disorder disease model, such as an animal or cell model. In some embodiments, the high-throughput screen measures the differentiation of HL-60 leukemic cells using a quantitative nitroblue tetrazolium (NBT) reduction assay. Screening HL-60 cells, human promyelocytic cells, is advantageous as they have been used extensively as a cell line to study myeloid differentiation. Though promyelocytic cells, HL-60 cells were derived from a patient with acute myeloblastic leukemia with maturation, FAB-M2.
This technique has also been widely exploited in HL-60 cells to analyze myelomonocytic differentiation.
The NBT screen works due to changes in the oxidoreductases during differentiation that lead to increases in rates of NBT reduction. NBT is reduced due to the production of superoxide that is catalyzed by an NADPH oxidase. […] NBT is reduced by superoxide from a soluble yellow compound to insoluble blue formazan granules whose formation can be monitored spectrophotometrically at 560 nm as the unreduced dye has minimal absorbance at this wavelength. A quantitative NBT reduction assay is ideal for this type of screen as it is simple, sensitive, quantitative, requires minimal cells, has been proven to have low well to well variability, and the amount of reduced NBT is proportional to the number of cells reducing the dye as well as the amount reduced by each cell.
To discover novel AML differentiation-inducing compounds a rapid high-throughput screen (HTS) was developed and optimized. The screen was designed to be biased to identify compounds that, unlike the majority of known differentiation-inducing agents, have both high potency and low toxicity. The screen measured the differentiation of HL-60 leukemic cells using a quantitative Nitroblue Tetrazolium (NBT) reduction assay, a test that is used extensively as a measure of functional myelomonocytic differentiation. The basis for the screen is unreduced NBT exists as a yellow soluble dye. Differentiated leukemic cells are capable of producing a respiratory burst that can reduce NBT into a blue insoluble compound that can be measured spectrophotometrically. This forward chemical genetics approach allowed the discovery of novel compounds that can act on targets not previously known to be “drugable.” As only live cells can reduce NBT, the screen is biased in identifying relatively nontoxic compounds.
To perform the screen, duplicate plates of HL-60 cells were cultured at a density of 5×10^4 cells/mL with 10 μM of each compound in 96 well plates for 5 days. To determine the relative capability for a compound to induce differentiation compared to known potent inducers, each plate destined for the NBT reduction assay included wells with 0.1% DMSO (vehicle control) and 1 μM ATRA. This approach eliminates any slight day to day variation in NBT reduction values and allows the discovery of compounds with similar or greater efficacy to ATRA. Differentiation was determined in the 96 well plates by incubating the cells with 1 mg/mL of NBT and 200 ng/mL of PMA as the stimulant for the respiratory burst for 35 minutes at 37° C. The reaction was then stopped with HCl and the formazan solubilized with DMSO. Finally, the reaction mixture was read spectrophotometrically at 560 nm in a plate reader.
The securinine and norsecurinine analogues were tested and evaluated on their abilities to affect differentiation and growth of HL-60 cells (Table 1).

SMILES	EC50
COC(OC)[C@H]1CC[C@H]2N1[C@@H]1C=CC3=CC(=O)O[C@@]32C1 [Compound 2]	3.25 to 5 µM
O=C1C=C2C(I)=C[C@@H]3C[C@@]2(O1)[C@H]1CCCCN31 [Compound 14]	0.5 to 0.75 µM
O=C1C=C2CC(SCC3CCCCCC3)[C@@H]3C[C@@]2(O1)[C@H]1CCCCN31 (stereo partly drawn) [Compound 70]	10 to 15 µM
CCCCCCCSC1CC2=CC(=O)O[C@@]23C[C@@H]1N1CCCC[C@@H]13 (stereo partly drawn) [Compound 71]	20 to 30 µM
O=C1C=C2CC(SCc3ccccc3)[C@@H]3C[C@@]2(O1)[C@H]1CCCCN31 (stereo partly drawn) [Compound 93]	> 30 µM
O=C1C=C2CC(SCc3ccccc3O)[C@@H]3C[C@@]2(O1)[C@H]1CCCCN31 (stereo partly drawn) [Compound 94]	15 to 20 µM

Same assay, conditions: Homo sapiens; HL-60 cells; value bracketed between tested concentrations; read-out: HL-60, Dif50

SMILES	EC50
C[N+]12CCCC[C@@H]1[C@]13C[C@H]2C=CC1=CC(=O)O3 (stereo partly drawn) [Compound 8]	> 30 µM
Nc1ccc(C#CC2=C[C@@H]3C[C@@]4(OC(=O)C=C24)[C@H]2CCCCN32)cc1 [Compound 53]	0.156 to 0.31 µM
O=C1C=C2CC(SC34CC5CC(CC(C5)C3)C4)[C@@H]3C[C@@]2(O1)[C@H]1CCCCN31 (stereo partly drawn) [Compound 66]	> 30 µM
O=C1C=C2CC(SCC(F)(F)F)[C@@H]3C[C@@]2(O1)[C@H]1CCCCN31 (stereo partly drawn) [Compound 67]	20 to 30 µM
O=C1C=C2CC(N3CCC(F)(F)C3)[C@@H]3C[C@@]2(O1)[C@H]1CCCCN31 (stereo partly drawn) [Compound 68]	> 30 µM
O=C1C=C2CC(SCc3cccs3)[C@@H]3C[C@@]2(O1)[C@H]1CCCCN31 (stereo partly drawn) [Compound 69]	20 to 30 µM
CCCCSC1CC2=CC(=O)O[C@@]23C[C@@H]1N1CCCC[C@@H]13 (stereo partly drawn) [Compound 72]	20 to 30 µM
CCN(CC)CCSC1CC2=CC(=O)O[C@@]23C[C@@H]1N1CCCC[C@@H]13 (stereo partly drawn) [Compound 73]	10 to 15 µM
CCCSC1CC2=CC(=O)O[C@@]23C[C@@H]1N1CCCC[C@@H]13 (stereo partly drawn) [Compound 74]	15 to 20 µM
CC(C)SC1CC2=CC(=O)O[C@@]23C[C@@H]1N1CCCC[C@@H]13 (stereo partly drawn) [Compound 75]	15 to 20 µM
NCCSC1CC2=CC(=O)O[C@@]23C[C@@H]1N1CCCC[C@@H]13 (stereo partly drawn) [Compound 77]	10 to 15 µM
O=C(CCCC[C@@H]1SC[C@@H]2NC(=O)N[C@@H]21)NCCS[C@H]1CC2=CC(=O)O[C@@]23C[C@@H]1N1CCCC[C@@H]13 [Compound 78]	10 to 15 µM
O=C1C=C2CC(NCC3CC3)[C@@H]3C[C@@]2(O1)[C@H]1CCCCN31 (stereo partly drawn) [Compound 79]	10 to 15 µM
O=C1C=C2CC(NC3CC3)[C@@H]3C[C@@]2(O1)[C@H]1CCCCN31 (stereo partly drawn) [Compound 80]	20 to 30 µM
O=C1C=C2CC(NC3CCCC3)[C@@H]3C[C@@]2(O1)[C@H]1CCCCN31 (stereo partly drawn) [Compound 81]	10 to 15 µM
O=C1C=C2CC(NC3CCCCC3)[C@@H]3C[C@@]2(O1)[C@H]1CCCCN31 (stereo partly drawn) [Compound 82]	15 to 20 µM
O=C1C=C2CC(NC3CCCCCC3)[C@@H]3C[C@@]2(O1)[C@H]1CCCCN31 (stereo partly drawn) [Compound 83]	> 30 µM
O=C1C=C2CC(NC3CCCCCCC3)[C@@H]3C[C@@]2(O1)[C@H]1CCCCN31 (stereo partly drawn) [Compound 84]	> 30 µM
O=C1C=C2CC(NC3CC(O)C3)[C@@H]3C[C@@]2(O1)[C@H]1CCCCN31 (stereo partly drawn) [Compound 85]	10 to 15 µM
COc1ccc(CN[C@H]2CC3=CC(=O)O[C@@]34C[C@@H]2N2CCCC[C@@H]24)cc1 [Compound 86]	15 to 20 µM
O=C1C=C2C[C@H](S(=O)(=O)c3ccccc3)[C@@H]3C[C@@]2(O1)[C@H]1CCCCN31 [Compound 88]	5 to 7.5 µM
O=C1C=C2CC(n3cnc4ccccc43)[C@@H]3C[C@@]2(O1)[C@H]1CCCCN31 (stereo partly drawn) [Compound 91]	> 30 µM
O=C1C=C2CC(n3nnc4ccccc43)[C@@H]3C[C@@]2(O1)[C@H]1CCCCN31 (stereo partly drawn) [Compound 92]	20 to 30 µM

The molecules below were run on HL-60 cells (assay: Growth of HL-60 cells (IC50)). Details: HL-60 cells; concentration giving 100% death.
Type: cell-based, human

SMILES	100% Death
COC(OC)[C@H]1CC[C@H]2N1[C@@H]1C=C(I)C3=CC(=O)O[C@@]32C1 [Compound 1]	100% Death <2.5

Same assay, conditions: Homo sapiens, HL-60, HL-60 cells; value bracketed between tested concentrations; read-out: HL-60, IC50

SMILES	IC50
CCCCC1=C[C@@H]2C[C@@]3(OC(=O)C=C13)[C@H]1CCCCN21 [Compound 4]	3 to 4 µM
CC(C)(C)c1ccc(C2=C[C@@H]3C[C@@]4(OC(=O)C=C24)[C@H]2CCCCN32)cc1 [Compound 5]	20 to 30 µM
O=C1C=C2C(c3cc(C(F)(F)F)cc(C(F)(F)F)c3)=C[C@@H]3C[C@@]2(O1)[C@H]1CCCCN31 [Compound 6]	15 to 20 µM
O=C1C=C2C(c3cc(Br)cc(Br)c3)=C[C@@H]3C[C@@]2(O1)[C@H]1CCCCN31 [Compound 7]	15 to 20 µM
C[N+]12CCCC[C@@H]1[C@]13C[C@H]2C=C(I)C1=CC(=O)O3 (stereo partly drawn) [Compound 9]	5 to 7.5 µM
CC(C)CC#CC1=C[C@@H]2C[C@@]3(OC(=O)C=C13)[C@H]1CCCCN21 [Compound 16]	1.25 to 2.5 µM
O=C1C=C2C(C#CC3CCCC3)=C[C@@H]3C[C@@]2(O1)[C@H]1CCCCN31 [Compound 19]	0.31 to 0.625 µM
CCCCC#CC1=C[C@@H]2C[C@@]3(OC(=O)C=C13)[C@H]1CCCCN21 [Compound 20]	2.5 µM
CC(C)(C)C#CC1=C[C@@H]2C[C@@]3(OC(=O)C=C13)[C@H]1CCCCN21 [Compound 23]	1.25 to 2.5 µM
O=C1C=C2C(C#CCC3CCCC3)=C[C@@H]3C[C@@]2(O1)[C@H]1CCCCN31 [Compound 24]	1.25 to 2.5 µM
O=C1C=C2C(C#CC3CC3)=C[C@@H]3C[C@@]2(O1)[C@H]1CCCCN31 [Compound 25]	1.25 to 2.5 µM
O=C1C=C2C(C#Cc3ccc(F)cc3)=C[C@@H]3C[C@@]2(O1)[C@H]1CCCCN31 [Compound 30]	0.31 to 0.625 µM
CC(C)(C)c1ccc(C#CC2=C[C@@H]3C[C@@]4(OC(=O)C=C24)[C@H]2CCCCN32)cc1 [Compound 32]	1.25 µM
O=C1C=C2C(C#CCOc3ccccc3)=C[C@@H]3C[C@@]2(O1)[C@H]1CCCCN31 [Compound 33]	0.625 to 1.25 µM
O=C1C=C2C(C#CCOCc3ccccc3)=C[C@@H]3C[C@@]2(O1)[C@H]1CCCCN31 [Compound 34]	1.25 to 2.5 µM
O=C1C=C2C(C#Cc3cc(F)cc(F)c3)=C[C@@H]3C[C@@]2(O1)[C@H]1CCCCN31 [Compound 37]	5 to 10 µM
Cc1ccccc1C#CC1=C[C@@H]2C[C@@]3(OC(=O)C=C13)[C@H]1CCCCN21 [Compound 38]	1.25 to 2.5 µM
CCOC(C#CC1=C[C@@H]2C[C@@]3(OC(=O)C=C13)[C@H]1CCCCN21)OCC [Compound 44]	2.5 to 5 µM
CC(C)(C)OCC#CC1=C[C@@H]2C[C@@]3(OC(=O)C=C13)[C@H]1CCCCN21 [Compound 45]	1.25 to 2.5 µM
CCc1ccc(C#CC2=C[C@@H]3C[C@@]4(OC(=O)C=C24)[C@H]2CCCCN32)cc1 [Compound 49]	0.31 to 0.625 µM
CCCCc1ccc(C#CC2=C[C@@H]3C[C@@]4(OC(=O)C=C24)[C@H]2CCCCN32)cc1 [Compound 50]	0.625 to 1.25 µM
O=C1C=C2C(C#Cc3ccc(-c4ccccc4)cc3)=C[C@@H]3C[C@@]2(O1)[C@H]1CCCCN31 [Compound 51]	< 0.07 µM
O=C1C=C2C(C#Cc3cccs3)=C[C@@H]3C[C@@]2(O1)[C@H]1CCCCN31 [Compound 52]	0.07 to 0.156 µM
[N-]=[N+]=Nc1ccc(C#CC2=C[C@@H]3C[C@@]4(OC(=O)C=C24)[C@H]2CCCCN32)cc1 [Compound 54]	0.31 µM
Nc1ccc(C#CC2=C[C@@H]3C[C@@]4(OC(=O)C=C24)[C@H]2CCCCN32)cc1 [Compound 63]	0.156 µM

Same assay, conditions: Homo sapiens, HL-60, read-out: HL-60, IC50, HL-60 cells; value bracketed between tested concentrations

SMILES	IC50
CC(C)[Si](OCC#CC1=C[C@@H]2C[C@@]3(OC(=O)C=C13)[C@H]1CCCCN21)(C(C)C)C(C)C [Compound 27]	0.625 to 1.25 µM

Same assay, conditions: read-out: HL-60, IC50; HL-60 cells; value bracketed between tested concentrations

SMILES	IC50
O=C1C=C2C(I)=C[C@@H]3C[C@@]2(O1)[C@H]1CCCCN31 [Compound 13]	< 2.5 µM
